Results as given in PubChem BioAssay AID977622 (Broad Institute, 2014).
Inconclusive results are not listed. Activity calls are given as the source filed them.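 The calls were made as follows: active = Green signal of the normal strain falls at least twice as much as red signal of the resistant mutant, with overall culture growth loss under a set limit; inconclusive = no clear call, values can overlap the other calls; inactive = the rest.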

Legend:
[1] = system: E. coli WT ribosome GFP fluorescence, mixed culture, 24 h; experiment: wild-type E. coli growth inhibition versus h38 humanized strain – h38 mutant RFP, wild-type GFP, cherry-pick, dose response (AID 977622)
[2] = system: E. coli h38 humanized mutant ribosome RFP fluorescence, mixed culture, 24 h; experiment: as above; details: measured here: h38 humanized mutant RFP strain
[3] = E. coli mixed culture, 24 h, measured here: total growth OD600

Row | Compound | AC50 [1, 3] [µM] | AC50 [2] [µM] | AC50 [1]
1 | O=C(c1cccs1)c1c[nH]cc1-c1ccccc1 | > 100 | > 100 | 
2 | CCc1cccc(NC(=O)CN(C)S(=O)(=O)c2cccc3cccnc23)c1 |  | > 100 | > 100 µM (inactive)
3 | CN(C)S(=O)(=O)N1CCN(c2ccccc2Cl)CC1 | > 100 | > 100 | 
4 | COc1ccc(NC(=O)Nc2cccc3c2O[C@@H](CN(C)S(=O)(=O)c2ccc(Cl)cc2)[C@H](C)CN([C@H](C)CO)C3=O)cc1 |  | > 100 | > 100 µM (inactive)
5 | C[C@@H]1CCCCO[C@H](CN(C)CC2CC2)[C@H](C)CN([C@@H](C)CO)C(=O)c2cc(NC(=O)Nc3cccc4ccccc34)ccc2O1 | 32.4 | 43.2 | > 52 µM (inactive)
6 | CCc1cc2c(nc1CC)CCCN2Cc1ccc(Br)cc1 |  | > 100 | > 100 µM (inactive)
7 | O=C(c1cccc2ccccc12)C1CCCN(C(=O)CCc2cnccn2)C1 (stereo not given) | > 100 | > 100 | 
8 | C=C1c2cc3c(cc2NC(=S)N1Cc1ccccc1)OCO3 | > 100 | > 100 | 
9 | Cc1ccccc1-c1cc(C(=O)NCc2cccs2)n(CC2CC(c3cccnc3)=NO2)n1 (stereo not given) |  | > 100 | > 100 µM (inactive)
10 | O=C(NCc1ccccc1)C1C(=O)Nc2ccccc2C(=O)N1c1ccc2c(c1)OCCO2 (stereo not given) |  | > 100 | > 100 µM (inactive)
11 | CCC1(CC)NC(=O)N(CC(=O)N2N=C(c3ccc(Cl)cc3)CC2c2ccco2)C1=O (stereo not given) | > 100 | > 100 | 
12 | COc1ccc(NC(=O)CCS(=O)(=O)c2ccccc2Cl)cc1S(=O)(=O)Nc1ccc(Cl)cc1 | > 100 | > 100 | > 100 µM (inactive)
13 | COc1ccc(CN2C(=O)NC(C)(c3ccc(C)cc3)C2=O)cc1F (stereo not given) |  | > 100 | > 100 µM (inactive)
14 | Cc1onc(-c2ccccc2Cl)c1C(=O)N1CCN(Cc2ccc3c(c2)OCO3)CC1 | > 100 | > 100 | 
